Where two headings read alike, the source gives them in different places.
Key:
Abeta 1-37 = details: Beagle dog, single dose 20 mg/kg, at 24 h
[1] = Single dose pharmacology in the Beagle dog, pharmacokinetic (PK) follow up; format: in vivo; details: single dose 20 mg/kg; for concentration at 24 h: both sexes
Method: (§1) Single Dose Pharmacology in the Beagle Dog
(§2) Compound 86 was tested to evaluate the effect on the beta-amyloid profile in cerebrospinal fluid (CSF) of dogs after a single dose, in combination with pharmacokinetic (PK) follow up and limited safety evaluation. 6 Beagle dogs (3 male, 3 female) were dosed with vehicle (4 ml/kg of an aqueous suspension of 20% cyclodextrin and Tween) and 6 Beagle dogs (3 male, 3 female) were dosed with compound 86 (20 mg/kg in 2 ml/kg of an aqueous 20% cyclodextrin solution) on an empty stomach. CSF was taken in conscious animals directly from the lateral ventricle via a cannula which was screwed in the skull and covered with subcutaneous tissue and skin, before and at 4, 8 and 24 hours after dosing. 8 Hours after dosing the animals got access to their regular meal for 30 minutes. Blood was taken for PK follow up (0.5, 1, 2, 4, 8 and 24 hours) and at the time of the CSF sampling, samples for serum analysis were taken. An additional sample for serum analysis was taken 10 days after dosing. The CSF samples were used for measurement of Abeta 1-37, Abeta 1-38, Abeta 1-40 and Abeta 1-42.

Aβtotal = assay: Demonstration of in vivo efficacy, brain Aβtotal lowering (ELISA); details: mouse brain, 30 mpk, s.c., 4 h
Description: To determine whether acute administration of an Aβ42 peptide lowering agent would reduce Aβ peptide levels in vivo, non-transgenic rodents, e.g. mice or rats were used. Animals treated with the Aβ peptide lowering agent were examined and compared to those untreated or treated with vehicle and brain levels of soluble Aβ42 and total Aβ were quantitated by standard techniques, for example, using ELISA.
A typical protocol for measuring Aβ42 lowering in vivo is shown but it is only one of many variations that could be used to optimize the levels of detectable Aβ. For example, Aβ peptide lowering compounds were formulated in 20% hydroxypropyl 3 cyclodextrin. The Aβ peptide lowering agents were administered as a single oral dose (p.o.) or a single subcutaneous dose (s.c.) to overnight fasted animals. After a certain time, usually 2 or 4 h (as indicated in Table 19), the animals were sacrificed and Aβ42 levels were analysed.
Blood was collected by decapitation and exsanguinations in EDTA-treated collection tubes. Blood was centrifuged at 1900 g for 10 minutes (min) at 4° C. and the plasma recovered and flash frozen for later analysis. The brain was removed from the cranium and hindbrain. The cerebellum was removed and the left and right hemisphere were separated. The left hemisphere was stored at −18° C. for quantitative analysis of test compound levels. The right hemisphere was rinsed with phosphate-buffered saline (PBS) buffer and immediately frozen on dry ice and stored at −80° C. until homogenization for biochemical assays.
Mouse brains from non-transgenic animals were resuspended in 8 volumes of 0.4% DEA (diethylamine)/50 mM NaCl containing protease inhibitors (Roche-11873580001 or 04693159001) per gram of tissue, e.g. for 0.158 g brain, add 1.264 ml of 0.4% DEA. All samples were homogenized in the FastPrep-24 system (MP Biomedicals) using lysing matrix D (MPBio #6913-100) at 6 m/s for 20 seconds. Homogenates were centrifuged at 221.300×g for 50 min. The resulting high speed supernatants were then transferred to fresh eppendorf tubes. Nine parts of supernatant were neutralized with 1 part 0.5 M Tris-HCl pH 6.8 and used to quantify Aβtotal and Aβ42.
To quantify the amount of Aβtotal and Aβ42 in the soluble fraction of the brain homogenates, Enzyme-Linked-Immunosorbent-Assays were used. Briefly, the standards (a dilution of synthetic Aβ1-40 and Aβ1-42, Bachem) were prepared in 1.5 ml Eppendorf tube in Ultraculture, with final concentrations ranging from 10000 to 0.3 pg/ml. The samples and standards were co-incubated with HRPO-labelled N-terminal antibody for Aβ42 detection and with the biotinylated mid-domain antibody 4G8 for Aβtotal detection. […] The plate was allowed to incubate overnight at 4° C. in order to allow formation of the antibody-amyloid complex. Following this incubation and subsequent wash steps the ELISA for Aβ42 quantification was finished by addition of Quanta Blu fluorogenic peroxidase substrate according to the manufacturer's instructions (Pierce Corp., Rockford, Ill.). A reading was performed after 10 to 15 min (excitation 320 nm/emission 420 nm).
For Aβtotal detection, a Streptavidine-Peroxidase-Conjugate was added, followed 60 min later by an additional wash step and addition of Quanta Blu fluorogenic peroxidase substrate according to the manufacturer's instructions (Pierce Corp., Rockford, Ill.). A reading was performed after 10 to 15 min (excitation 320 nm/emission 420 nm).

P-gp = target: T1, P-gp (Homo sapiens, UniProt P08183); assay: Transepithelial transport of test compounds through LLC-MDR1 monolayers; format: in vitro ADME; details: pig, LLC-PK1
T1 construct: expressed in transfected cells; host or cells: LLC-PK1 cells stably transduced with MDR1 (LLC-MDR1)
Method: Brief Assay Description for the Measurement of Transepithelial Transport of Test Compounds Through LLC-MDR1 Monolayers
The purpose of this assay was to assess both the in vitro passive permeability of test compounds and their ability to be transported substrates of P-gp using LLC-PK1 cells stably transduced with MDR1 in a trans-well system. The positive control for transport was ^3H-digoxin (30 nM) and the positive control inhibitor was GF120918 (5 μM). The marker compound for low permeability was ^14C-Mannitol (1 μM). The test compound concentration was 1 μM.
The integrity of the cellular monolayer was assessed in each incubation well through the inclusion of the fluorescent, low permeability marker compound, Fluorescein.
In detail, LLC-MDR1 cells were seeded on 24-well cell culture inserts (Millicell®-PCF, 0.4 μm, 13 mm diameter, 0.7 cm^2) at 400,000 cells/cm^2. Cell culture medium consisted of Medium 199 supplemented with 10% Foetal Bovine Serum (FBS) and 100 U/ml Penicillin/streptomycin and was replaced the day after seeding and the day before the experiment. The transport experiment was performed 5 days after seeding. On the day of the experiment, solutions of the test compounds were applied to the apical or basolateral side of the monolayers to assess transport in the A to B and B to A directions, respectively. The medium used in the assay was (OPTI-MEM (1×) (GIBCO) with 1 w/v % Bovine Serum Albumin. Inserts were incubated at 37° C. in a humidified incubator containing 5% CO2. Samples from the acceptor and donor compartments were collected after an incubation time of 120 min, to assess the permeability and to allow estimation of the test compound recovery during the experiment, respectively. Transport experiments were performed in triplicate. Absolute test compound concentrations were measured using LC-MS/MS and quantified via a calibration curve.

[2] = Single dose pharmacology in the Beagle dog, limited safety evaluation; format: in vivo; details: single dose 20 mg/kg
Method: as §1, §2

T1 sequence (P08183 whole entry): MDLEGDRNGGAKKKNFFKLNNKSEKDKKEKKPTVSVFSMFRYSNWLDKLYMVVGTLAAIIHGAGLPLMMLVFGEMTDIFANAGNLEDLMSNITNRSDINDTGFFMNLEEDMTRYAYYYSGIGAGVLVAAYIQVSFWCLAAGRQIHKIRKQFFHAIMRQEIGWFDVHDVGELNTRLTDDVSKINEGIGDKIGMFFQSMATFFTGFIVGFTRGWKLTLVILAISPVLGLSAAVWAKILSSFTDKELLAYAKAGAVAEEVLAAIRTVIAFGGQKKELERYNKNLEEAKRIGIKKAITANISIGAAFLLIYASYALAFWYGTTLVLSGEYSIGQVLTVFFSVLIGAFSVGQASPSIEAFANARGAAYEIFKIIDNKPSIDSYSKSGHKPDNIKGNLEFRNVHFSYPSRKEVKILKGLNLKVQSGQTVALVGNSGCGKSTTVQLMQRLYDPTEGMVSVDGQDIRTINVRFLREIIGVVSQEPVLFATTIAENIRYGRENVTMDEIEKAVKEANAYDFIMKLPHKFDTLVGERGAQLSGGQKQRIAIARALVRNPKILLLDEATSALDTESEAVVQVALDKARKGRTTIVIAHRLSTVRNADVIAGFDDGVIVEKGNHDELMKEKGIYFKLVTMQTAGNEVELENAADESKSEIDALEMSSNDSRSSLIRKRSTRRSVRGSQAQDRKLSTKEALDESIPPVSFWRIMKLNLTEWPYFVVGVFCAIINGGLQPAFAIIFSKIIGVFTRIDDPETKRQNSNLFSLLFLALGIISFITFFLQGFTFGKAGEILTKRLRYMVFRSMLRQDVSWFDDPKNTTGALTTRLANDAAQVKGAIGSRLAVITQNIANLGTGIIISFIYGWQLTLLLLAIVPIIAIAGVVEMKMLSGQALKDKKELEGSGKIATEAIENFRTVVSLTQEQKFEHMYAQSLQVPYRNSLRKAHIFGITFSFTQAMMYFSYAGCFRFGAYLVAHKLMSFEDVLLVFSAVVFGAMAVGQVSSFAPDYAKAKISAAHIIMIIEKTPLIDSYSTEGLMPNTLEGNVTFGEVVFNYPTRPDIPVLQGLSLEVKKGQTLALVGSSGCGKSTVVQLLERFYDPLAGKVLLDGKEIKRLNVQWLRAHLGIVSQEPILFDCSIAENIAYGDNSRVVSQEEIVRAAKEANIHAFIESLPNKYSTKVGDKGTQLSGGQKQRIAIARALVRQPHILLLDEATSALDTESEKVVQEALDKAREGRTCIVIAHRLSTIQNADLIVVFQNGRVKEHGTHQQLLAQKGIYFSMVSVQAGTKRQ

concentration at 24 h ([1]; CSF, at 24 h, read-out: CSF levels): 0.045 µg/mL | concentration at 24 h ([1]; plasma, up to at least 24 h post dosing, read-out: plasma levels): 1.44 µg/mL | clearance [1]: slow clearance | melting point: 157.7 °C | efflux ratio at 120 min, 1 μM (P-gp; LLC-MDR1 monolayers, ratio of B to A and A to B permeation rates, read-out: BA/AB): 1.6 | Papp A→B at 120 min, 1 μM (P-gp; read-out: A to B (Apparent Permeability, Papp)): 132 nm/s | Papp B→A at 120 min, 1 μM (P-gp; read-out: B to A (Apparent Permeability, Papp)): 209 nm/s
Compound: C[C@]1(c2cccc(NC(=O)c3ccc(Cl)cn3)c2)N=C(N)CO[C@@H]1F (single isomer, unassigned) [Compound 86, (R*,R*)—N-[3-(5-amino-2-fluoro-3-methyl-3,6-dihydro-2H-1,4-oxazin-3-yl)phenyl]-5-chloropyridine-2-carboxamide]
decrease in Abeta 1-37 in CSF compared to own baseline (Abeta 1-37): 72% | Aβtotal (% Ctrl)_Mean (Aβtotal): 55 % Ctrl | clinical abnormalities in behavior [2]: no overt clinical abnormalities in behavior | changes in serum parameters (liver enzymes, bilirubin, ...) ([2]; serum up to 10 days after dosing): No acute or delayed changes in serum parameters
